Data: patent publication US10174052B2, “Quinuclidine compounds as α-7 nicotinic acetylcholine receptor ligands” (BRISTOL-MYERS SQUIBB COMPANY, priority 2014, dated 2019)

Target: T1, α7 nicotinic ACh receptor ion channel expressed in mammalian HEK 293 cells (Rattus norvegicus, UniProt Q05941)
T1 construct: expressed in transfected cells
Test: Ca2+-sensitive fluorescence-based assay for α7 nicotinic acetylcholine receptor channel function (FLIPR), agonist activity
Assay type: cell-based
Conditions: HEK 293 cells, Ca2+ flux
Method: II) A Ca^2+-Sensitive, Fluorescence-Based Assay α-7 for Nicotinic Acetylcholine Receptor Channel Function in Mammalian Cells (“FLIPR”).
Lead compounds are evaluated for agonist activity at the α7 nicotinic ACh receptor ion channel expressed in mammalian HEK 293 cells. Agonist potency and efficacy values are determined from kinetic fluorescence Ca^2+ influx measurements made using a 384 well FLIPR (Fluorescence Image Plate Reader). The utility of fluorescent indicators for measuring changes in intracellular divalent cation concentrations, particularly Ca^2+, for drug discovery endeavors is well documented (Rudiger, R., et al., Nature Reviews, 2003, 4:579-586; Gonzalez J. E., et al., Receptors and Channels, 2002, 8:283-295). In this assay, channel expressing HEK cell lines seeded in 384 well assay plates are loaded with a membrane permeant fluorescent Ca^2+ indicator dye, whose 510 nm green emission signal increases in response to elevation of intracellular Ca^2+ concentration. The basal fluorescence from the cells is monitored in real time, followed by the acute addition of test compounds. If the compound is an agonist at any of the non-selective cation channels, the latter open and allow the movement of extracellular Ca^2+ ions into the cell cytoplasm, where they bind to the Ca^2+ indicator dye, and produce an increase in fluorescence output signal, which is detected by a cooled CCD imaging camera.
Reagents: The acetomethoxy (AM) ester of the Ca^2+ indicator dye Fluo-4 was obtained from InVitrogen, (Carlsbad, Calif.). Acetylcholine and all buffer constituents were purchased from Sigma Chemical Company, St. Louis, Mo. G418 and Minimal Essential Medium were purchased from InVitrogen Life Technologies, Carlsbad, Calif. Fetal bovine serum was purchased from (InVitrogen, Carlsbad, Calif.).
HEK-293 cells were grown in Minimal Essential Medium containing 10% (v/v) fetal bovine serum at 37° C. in a 5% CO2 incubator. HEK-293 cells stably expressing the ion channels were grown in the same medium with the addition of 500 μg/ml G418.
HEK-293 cells expressing the ion channels of interest were plated in 384 well, black-walled, clear-bottomed, poly-D-lysine coated plates at a density of ˜20,000 cells/well in 20 μl of Minimal Essential Medium containing 10% (v/v) fetal bovine serum and incubated for 2 days at 29° C. in a 5% CO2 incubator. Prior to assay, cells were loaded with the Fluo-4 AM ester. Cell loading was accomplished by removing the culture medium and replacing it with 30 μl/well of the AM ester of the dye (5 μM) mixed with Hanks Balanced Salt Solution (#14175-095) containing 20 mM HEPES, 2.5 mM probenecid, 0.5 mM CaCl2, 1 mM MgCl2 and 10 μM atropine. Dye loading was allowed to proceed for 90 minutes at room temperature at which time the dye loading solution was removed and replaced with 40 μl/well of Hanks buffer. Cells loaded with dye were loaded onto a FLIPR384 (Molecular Devices, Sunnyvale, Calif.). Fluo-4 dye was excited using the 488 nm line of an argon laser. Emission was filtered using a 540+/−30 nm bandpass filter. For evaluation of the effects of test compounds using the Ca^2+ flux assay, compounds to be tested were provided in assay ready plates. For nicotinic receptor ion channel expressing cells, the assay was initiated by the addition of 20 μl/well of Hanks buffer containing test compounds. For all assays, data were collected at 1 Hz for 10 seconds (baseline), at which time the compound containing stimulus buffers are added, and further measurements collected at 0.33 Hz for 3 min.
The statistical robustness of the nicotinic receptor Ca^2+ flux assays is determined from blanks and totals wells. The totals wells define maximal channel activation for each compound test plate (Maximum efficacious dose of acetylcholine), and the blanks wells which contain matched DMSO only, define zero channel activation. […]

[1] = FLIPR α7 (EC50, nM), agonist potency
[2] = FLIPR α7 activity rating (EC50, nM), class rating of EC50

T1 sequence (Q05941 23-502): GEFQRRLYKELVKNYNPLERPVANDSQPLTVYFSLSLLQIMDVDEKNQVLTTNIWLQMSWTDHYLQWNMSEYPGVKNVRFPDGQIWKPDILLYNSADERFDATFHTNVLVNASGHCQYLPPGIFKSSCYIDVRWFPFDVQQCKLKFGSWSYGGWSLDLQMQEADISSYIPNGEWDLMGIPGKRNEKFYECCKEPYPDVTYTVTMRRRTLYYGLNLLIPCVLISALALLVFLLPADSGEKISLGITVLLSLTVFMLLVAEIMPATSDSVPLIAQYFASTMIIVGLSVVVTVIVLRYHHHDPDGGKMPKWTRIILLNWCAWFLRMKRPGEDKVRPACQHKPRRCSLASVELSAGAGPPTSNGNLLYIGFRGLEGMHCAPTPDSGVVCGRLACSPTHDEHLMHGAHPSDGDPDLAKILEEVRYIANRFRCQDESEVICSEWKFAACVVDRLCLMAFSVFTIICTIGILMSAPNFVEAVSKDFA

SMILES: c1nc2n(n1)CC1(CN3CCC1CC3)O2 (racemic) [Example 17, 6H-1′-Azaspiro[oxazolo[3,2-b][1,2,4]triazole-5,3′-bicyclo[2.2.2]octane]]
- EC50 [1]: 321 nM
- EC50 [2]: 100 to 1000 nM

SMILES: Brc1nc2n(n1)CC1(CN3CCC1CC3)O2 (racemic) [Example 15, 2-Bromo-6H-1′-azaspiro[oxazolo[3,2-b][1,2,4]triazole-5,3′-bicyclo[2.2.2]octane]]
- EC50 [1]: 362 nM
- EC50 [2]: 100 to 1000 nM
